Article doi:10.1101/2023.09.11.557219v1 (biorxiv, 2023)

Target: SARS-CoV-2 M^pro (main protease, 3CL^pro, NSP5) (Severe acute respiratory syndrome coronavirus 2, UniProt P0DTD1)
Test: fluorogenic substrate cleavage, Morrison fit
Type: biochemical
Settings: HEPES 25 mM pH 7.0; fluorogenic substrate SAE0180

With `O=C(NCCN1CCCC1)N1c2ccccc2Sc2ccccc21` [compound 3, 4080] the Ki was 80 µM.
